Structures are written as SMILES. “And” between values parts separate entries of the source, which are not always exact repeats. Identical values can stand only once. Toxic doses and inconclusive results are not listed.

The test system of this assay is B6C3F1 mice, Lewis lung carcinoma iv, survival T/C. Put plainly: NCI In Vivo Anticancer Drug Screen. Data for tumor model Lewis Lung Carcinoma (intravenous) in B6C3F1 mice. Particulars: endpoint: median survival time, higher = longer survival. The essentials:
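Mice carrying transplanted tumors received test compound; survival in the treated group was divided by that of the vehicle-treated control group to give the T/C value.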

The mark [1] stands for this setting: dose: 12.5 mg/kg/injection, schedule: Q01DX009 (ip), vehicle: saline with Tween-80.
Where [2] appears, read: dose: 25.0 mg/kg/injection, schedule: Q01DX009 (ip), vehicle: saline with Tween-80.
[3] abbreviates: dose: 50.0 mg/kg/injection, schedule: Q01DX009 (ip), vehicle: saline with Tween-80.
The mark [4] stands for this setting: dose: 100.0 mg/kg/injection, schedule: Q01DX009 (ip), vehicle: saline with Tween-80.
Where [5] appears, read: dose: 6.25 mg/kg/injection, schedule: Q01DX009 (ip), vehicle: saline with Tween-80.
Setting [6] is: dose: 200.0 mg/kg/injection, schedule: Q01DX009 (ip), vehicle: saline with Tween-80.
[7] abbreviates: dose: 12.5 mg/kg/injection, schedule: Q01DX009 (ip), vehicle: saline.
The mark [8] stands for this setting: dose: 25.0 mg/kg/injection, schedule: Q01DX009 (ip), vehicle: saline.

On to `C[C@@](O)(/C=C/[C@H]1CC=CC(=O)O1)[C@@H](C[C@@H](O)\C=C/C=C\C=C\CO)OP(=O)(O)O`, for which the T/C was 93 % of control (dose: 1.56 mg/kg/injection, schedule: Q01DX009 (ip), vehicle: other); 91 % of control and 93 % of control and 100 % of control (dose: 3.12 mg/kg/injection, schedule: Q01DX009 (ip), vehicle: other); 92 % of control and 95 % of control and 98 % of control (dose: 6.25 mg/kg/injection, schedule: Q01DX009 (ip), vehicle: other); 100 % of control and 103 % of control (2×) (dose: 12.5 mg/kg/injection, schedule: Q01DX009 (ip), vehicle: other); 114 % of control (dose: 25.0 mg/kg/injection, schedule: Q01DX009 (ip), vehicle: other).
As to `CNNCc1ccc(C(=O)NC(C)C)cc1`, the T/C (dose: 100.0 mg/kg/injection, schedule: Q01DX009 (ip), vehicle: Klucel (hydroxypropylcellulose) (HPC)) is 153 % of control; the T/C (dose: 200.0 mg/kg/injection, schedule: Q01DX009 (ip), vehicle: Klucel (hydroxypropylcellulose) (HPC)) is 151 % of control; the T/C (dose: 400.0 mg/kg/injection, schedule: Q01DX009 (ip), vehicle: Klucel (hydroxypropylcellulose) (HPC)) is 200 % of control.
For `CCCN1COC(OCC)C(C)(C)C1` (stereo unspecified), the T/C was 103 % of control and 111 % of control under setting [1]; 93 % of control and 99 % of control under setting [2]; 106 % of control and 112 % of control under setting [3]; 100 % of control and 101 % of control under setting [4].
Consider `CC1=CC(C)(C)Nc2ccc(CSc3ccccc3)cc21`, for which the T/C by setting is: (dose: 12.5 mg/kg/injection, schedule: Q01DX009 (ip), vehicle: saline + Tween-80 + alcohol) 99 % of control; (dose: 25.0 mg/kg/injection, schedule: Q01DX009 (ip), vehicle: saline + Tween-80 + alcohol) 108 % of control; (dose: 50.0 mg/kg/injection, schedule: Q01DX009 (ip), vehicle: saline + Tween-80 + alcohol) 100 % of control; (dose: 100.0 mg/kg/injection, schedule: Q01DX009 (ip), vehicle: saline + Tween-80 + alcohol) 101 % of control; (dose: 200.0 mg/kg/injection, schedule: Q01DX009 (ip), vehicle: saline + Tween-80 + alcohol) 108 % of control; (dose: 400.0 mg/kg/injection, schedule: Q01DX009 (ip), vehicle: saline + Tween-80 + alcohol) 108 % of control.
Regarding `COc1c(C=O)c2c(c(OC)c1OC)-c1ccc(OC)c(=O)cc1[C@@H](NC(C)=O)CC2`, the T/C reads like this: (dose: 1.56 mg/kg/injection, schedule: Q01DX009 (ip), vehicle: Klucel (hydroxypropylcellulose) (HPC)) 95 % of control; (dose: 3.12 mg/kg/injection, schedule: Q01DX009 (ip), vehicle: Klucel (hydroxypropylcellulose) (HPC)) 98 % of control; (dose: 6.25 mg/kg/injection, schedule: Q01DX009 (ip), vehicle: Klucel (hydroxypropylcellulose) (HPC)) 95 % of control.
Regarding `NC(=O)/C=C/c1c[nH]c2nccnc12`, the T/C by setting is: (dose: 1.56 mg/kg/injection, schedule: Q01DX009 (ip), vehicle: water) 94 % of control; (dose: 3.12 mg/kg/injection, schedule: Q01DX009 (ip), vehicle: water) 88 % of control; (dose: 6.25 mg/kg/injection, schedule: Q01DX009 (ip), vehicle: water) 92 % of control; (dose: 12.5 mg/kg/injection, schedule: Q01DX009 (ip), vehicle: water) 94 % of control; (dose: 25.0 mg/kg/injection, schedule: Q01DX009 (ip), vehicle: water) 94 % of control.
With `CC1c2ccccc2CC(CCN(C)C)c2ccccc21` (stereo unspecified), the T/C under setting [5] is 100 % of control, the T/C under setting [1] was 101 % of control, the T/C under setting [2] was 107 % of control and the T/C under setting [3] is 96 % of control.
Turning to `CCCCc1ccc2nc(NC(=O)OC)[nH]c2c1`, the T/C is 111 % of control under setting [5]; 97 % of control under setting [1]; 95 % of control under setting [2]; 95 % of control under setting [3]; 111 % of control under setting [4].
Consider `COc1nc(C(Cl)(Cl)Cl)c(Cl)c(OC)c1Cl`, for which the T/C was 120 % of control (dose: 25.0 mg/kg/injection, schedule: Q01DX008 (ip), vehicle: Klucel (hydroxypropylcellulose) (HPC)); 113 % of control (dose: 50.0 mg/kg/injection, schedule: Q01DX008 (ip), vehicle: Klucel (hydroxypropylcellulose) (HPC)); 113 % of control (dose: 100.0 mg/kg/injection, schedule: Q01DX008 (ip), vehicle: Klucel (hydroxypropylcellulose) (HPC)).
On to `CCC(C)Nc1ccc(N)cc1` (stereo unspecified), for which the T/C is, setting by setting: (dose: 1.5 mg/kg/injection, schedule: Q01DX009 (ip), vehicle: Klucel (hydroxypropylcellulose) (HPC)) 86 % of control; (dose: 3.0 mg/kg/injection, schedule: Q01DX009 (ip), vehicle: Klucel (hydroxypropylcellulose) (HPC)) 98 % of control; (dose: 6.0 mg/kg/injection, schedule: Q01DX009 (ip), vehicle: Klucel (hydroxypropylcellulose) (HPC)) 94 % of control; (dose: 12.0 mg/kg/injection, schedule: Q01DX009 (ip), vehicle: Klucel (hydroxypropylcellulose) (HPC)) 93 % of control.
Take `Cc1ccoc1`: the T/C is 107 % of control (dose: 8.3 mg/kg/injection, schedule: Q03HX027 (ip), vehicle: saline with Tween-80); 112 % of control (dose: 16.6 mg/kg/injection, schedule: Q03HX027 (ip), vehicle: saline with Tween-80); 100 % of control (dose: 33.3 mg/kg/injection, schedule: Q03HX027 (ip), vehicle: saline with Tween-80); 102 % of control (dose: 66.6 mg/kg/injection, schedule: Q03HX027 (ip), vehicle: saline with Tween-80).
In the case of `O=C1NC(=O)C2C3C=CC(C12)C1C2C(=O)NC(=O)C2C31` (stereo unspecified), the T/C runs as follows: under setting [1], 96 % of control and 105 % of control; under setting [2], 95 % of control and 102 % of control; under setting [3], 99 % of control; under setting [4], 96 % of control; under setting [6], 91 % of control.
For `O=C(O)CP(=O)(O)O`, the T/C was 94 % of control under setting [7]; 97 % of control under setting [8]; 97 % of control (dose: 50.0 mg/kg/injection, schedule: Q01DX009 (ip), vehicle: saline); 95 % of control (dose: 100.0 mg/kg/injection, schedule: Q01DX009 (ip), vehicle: saline); 92 % of control (dose: 200.0 mg/kg/injection, schedule: Q01DX009 (ip), vehicle: saline); 94 % of control (dose: 400.0 mg/kg/injection, schedule: Q01DX009 (ip), vehicle: saline). Besides, the T/C (dose: 800.0 mg/kg/injection, schedule: Q01DX009 (ip), vehicle: saline) is 94 % of control.
For `O=C(O)CC(=O)O.[NH-]CC[NH-].[Pt+2]`, the T/C is 108 % of control (dose: 1.56 mg/kg/injection, schedule: Q01DX009 (ip), vehicle: dextrose); 107 % of control and 120 % of control (dose: 3.12 mg/kg/injection, schedule: Q01DX009 (ip), vehicle: dextrose); 105 % of control and 109 % of control (dose: 6.25 mg/kg/injection, schedule: Q01DX009 (ip), vehicle: dextrose); 102 % of control and 119 % of control (dose: 12.5 mg/kg/injection, schedule: Q01DX009 (ip), vehicle: dextrose).
As to `c1cc(OCC2CO2)ccc1OCC1CO1` (stereo unspecified), the T/C is 96 % of control under setting [1], 94 % of control under setting [2], 100 % of control under setting [3] and 96 % of control under setting [4].
Take `C(=N/NC1=NCCN1)/c1c2ccccc2c(/C=N\NC2=NCCN2)c2ccccc12`: the T/C is, setting by setting: (dose: 3.12 mg/kg/injection, schedule: Q01DX009 (ip), vehicle: saline) 110 % of control; under setting [7], 100 % of control; under setting [8], 100 % of control.
In the case of `O=C1C=C2C(=CCOC2O)O1` (stereo unspecified), the T/C (dose: 0.25 mg/kg/injection, schedule: Q01DX009 (ip), vehicle: Klucel (hydroxypropylcellulose) (HPC)) was 99 % of control; the T/C (dose: 0.5 mg/kg/injection, schedule: Q01DX009 (ip), vehicle: Klucel (hydroxypropylcellulose) (HPC)) is 104 % of control; the T/C (dose: 0.75 mg/kg/injection, schedule: Q01DX009 (ip), vehicle: saline) is 97 % of control; the T/C (dose: 1.0 mg/kg/injection, schedule: Q01DX009 (ip), vehicle: Klucel (hydroxypropylcellulose) (HPC)) is 94 % of control; the T/C (dose: 1.5 mg/kg/injection, schedule: Q01DX009 (ip), vehicle: saline) is 98 % of control; the T/C (dose: 2.0 mg/kg/injection, schedule: Q01DX009 (ip), vehicle: Klucel (hydroxypropylcellulose) (HPC)) is 98 % of control. For the same compound, the T/C reads like this: (dose: 3.0 mg/kg/injection, schedule: Q01DX009 (ip), vehicle: saline) 98 % of control; (dose: 4.0 mg/kg/injection, schedule: Q01DX009 (ip), vehicle: Klucel (hydroxypropylcellulose) (HPC)) 94 % of control.
For the compound `O=CC=O`, the T/C was 102 % of control under setting [5]; 116 % of control under setting [1]; 107 % of control under setting [2]; 107 % of control under setting [3]; 95 % of control under setting [4]; 101 % of control under setting [6].
Take `c1nc(N2CC2)c2cnn(C3CCCCO3)c2n1` (stereo unspecified): the T/C is, setting by setting: under setting [3], 103 % of control; under setting [4], 107 % of control; under setting [6], 112 % of control.

The record behind these values is PubChem BioAssay AID276 (DTP/NCI, 2004).
